Assay results as given in patent US20250145594A1, “MODULATORS OF THE INTEGRATED STRESS PATHWAY” (Calico Life Sciences LLC, priority 2020, published 2025).

test system: ATF4 luciferase reporter in HEK293T cells; experiment: ATF4-Luc assay (in vitro model of VWMD); format: cell-based, human; settings: Homo sapiens, HEK-293T, 7 h, HEK293T cells carrying the ATF4 luciferase reporter, 1 μg/mL tunicamycin, One Glo luminescence
Outline: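 Stable HEK293T line expressing firefly luciferase behind the human ATF4 5′-UTR, treated with 1 μg/mL tunicamycin plus compound for 7 hours. Luminescence read with One Glo; EC50 determined.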

First: O=C(NC12CC(n3cnc(-c4ccc(Cl)c(F)c4F)c3)(C1)C2)[C@H]1C[C@@H](O)c2cc(Cl)ccc2O1 [Compound 394, (2R,4R)-6-chloro-N-{3-[4-(4-chloro-2,3-difluorophenyl)-1H-imidazol-1-yl]bicyclo[1.1.1]pentan-1-yl}-4-hydroxy-3,4-dihydro-2H-1-benzopyran-2-carboxamide]
Second: O=C(NC12CC(n3cnc(C(=O)N4CC(OC(F)(F)F)C4)c3)(C1)C2)[C@H]1C[C@@H](O)c2cc(Cl)ccc2O1 [Compound 395, (2R,4R)-6-chloro-4-hydroxy-N-(3-{4-[3-(trifluoromethoxy)azetidine-1-carbonyl]-1H-imidazol-1-yl}bicyclo[1.1.1]pentan-1-yl)-3,4-dihydro-2H-1-benzopyran-2-carboxamide]
The EC50 of the first is lower: less than 10 nM for the first, 10 to 50 nM for the second.

Compared with `COc1ncc(-c2cnn(C34CC(NC(=O)[C@@H]5C[C@@H](O)c6cc(Cl)ccc6O5)(C3)C4)c2)cn1` [Compound 396, (2S,4R)-6-chloro-4-hydroxy-N-{3-[4-(2-methoxypyrimidin-5-yl)-1H-pyrazol-1-yl]bicyclo[1.1.1]pentan-1-yl}-3,4-dihydro-2H-1-benzopyran-2-carboxamide], `O=C(NC12CC(n3cc(OCCOC(F)F)cn3)(C1)C2)[C@H]1C[C@@H](O)c2cc(Cl)ccc2O1` [Compound 420, (2R,4R)-6-chloro-N-(3-{4-[2-(difluoromethoxy)ethoxy]-1H-pyrazol-1-yl}bicyclo[1.1.1]pentan-1-yl)-4-hydroxy-3,4-dihydro-2H-1-benzopyran-2-carboxamide] is lower in EC50: 50 to 250 nM for the first, 10 to 50 nM for the second.

First: O=C(NC12CC(n3cc(C(=O)N4CC[C@@H](COC(F)(F)F)C4)cn3)(C1)C2)[C@H]1C[C@@H](O)c2cc(Cl)ccc2O1 [Compound 397, (2R,4R)-6-chloro-4-hydroxy-N-[3-(4-{(3R)-3-[(trifluoromethoxy)methyl]pyrrolidine-1-carbonyl}-1H-pyrazol-1-yl)bicyclo[1.1.1]pentan-1-yl]-3,4-dihydro-2H-1-benzopyran-2-carboxamide]
Second: O=C(NC12CC(n3cc(C(=O)N4CC[C@H](COC(F)(F)F)C4)cn3)(C1)C2)[C@H]1C[C@@H](O)c2cc(Cl)ccc2O1 [Compound 400, (2R,4R)-6-chloro-4-hydroxy-N-[3-(4-{(3S)-3-[(trifluoromethoxy)methyl]pyrrolidine-1-carbonyl}-1H-pyrazol-1-yl)bicyclo[1.1.1]pentan-1-yl]-3,4-dihydro-2H-1-benzopyran-2-carboxamide]
The EC50 of the first is higher: 50 to 250 nM for the first, 10 to 50 nM for the second. The second is the more potent here.

`O=C(NC12CC(n3cc(C(=O)N4CC[C@@H](OC(F)F)C4)cn3)(C1)C2)[C@H]1C[C@@H](O)c2cc(Cl)ccc2O1` [Compound 399, (2R,4R)-6-chloro-N-(3-{4-[(3R)-3-(difluoromethoxy)pyrrolidine-1-carbonyl]-1H-pyrazol-1-yl}bicyclo[1.1.1]pentan-1-yl)-4-hydroxy-3,4-dihydro-2H-1-benzopyran-2-carboxamide] and `C[Si]1(C)CCN(C(=O)c2cnn(C34CC(NC(=O)[C@H]5C[C@@H](O)c6cc(Cl)ccc6O5)(C3)C4)c2)C1` [Compound 401, (2R,4R)-6-chloro-N-{3-[4-(3,3-dimethyl-1,3-azasilolidine-1-carbonyl)-1H-pyrazol-1-yl]bicyclo[1.1.1]pentan-1-yl}-4-hydroxy-3,4-dihydro-2H-1-benzopyran-2-carboxamide] fall in the same range of EC50: 250 to 500 nM for the first, 250 to 500 nM for the second.

`O=C(NC12CC(n3cc(OC[C@H]4C[C@@H](OC(F)(F)F)C4)cn3)(C1)C2)[C@H]1C[C@@H](O)c2cc(Cl)ccc2O1` [Compound 402, (2R,4R)-6-chloro-4-hydroxy-N-[3-(4-{[cis-3-(trifluoromethoxy)cyclobutyl]methoxy}-1H-pyrazol-1-yl)bicyclo[1.1.1]pentan-1-yl]-3,4-dihydro-2H-1-benzopyran-2-carboxamide] and `O=C(NC12CC(n3cc(O[C@H]4C[C@@H](OC(F)(F)F)C4)cn3)(C1)C2)[C@H]1C[C@@H](O)c2cc(Cl)ccc2O1` [Compound 409, (2R,4R)-6-chloro-4-hydroxy-N-[3-(4-{[cis-3-(trifluoromethoxy)cyclobutyl]oxy}-1H-pyrazol-1-yl)bicyclo[1.1.1]pentan-1-yl]-3,4-dihydro-2H-1-benzopyran-2-carboxamide] cannot be ordered by EC50: less than 10 nM for the first, less than 10 nM for the second.

`O=C(NC12CC(n3cc(-c4ccc(OC(F)(F)F)cn4)cn3)(C1)C2)[C@H]1C[C@@H](O)c2cc(C(F)(F)F)ccc2O1` [Compound 403, (2R,4R)-4-hydroxy-N-(3-{4-[5-(trifluoromethoxy)pyridin-2-yl]-1H-pyrazol-1-yl}bicyclo[1.1.1]pentan-1-yl)-6-(trifluoromethyl)-3,4-dihydro-2H-1-benzopyran-2-carboxamide] and `O=C(NC12CC(n3cc(OCCOC(F)(F)F)cn3)(C1)C2)[C@H]1C[C@@H](O)c2cc(C(F)(F)F)ccc2O1` [Compound 424, (2R,4R)-4-hydroxy-N-(3-{4-[2-(trifluoromethoxy)ethoxy]-1H-pyrazol-1-yl}bicyclo[1.1.1]pentan-1-yl)-6-(trifluoromethyl)-3,4-dihydro-2H-1-benzopyran-2-carboxamide] cannot be ordered by EC50: less than 10 nM for the first, less than 10 nM for the second.

`O=C(NC12CC(c3cnc([C@H]4C[C@@H](OC(F)(F)F)C4)o3)(C1)C2)[C@H]1C[C@@H](O)c2cc(Cl)ccc2O1` [Compound 410, (2R,4R)-6-chloro-4-hydroxy-N-(3-{2-[cis-3-(trifluoromethoxy)cyclobutyl]-1,3-oxazol-5-yl}bicyclo[1.1.1]pentan-1-yl)-3,4-dihydro-2H-1-benzopyran-2-carboxamide] and `O=C(NC12CC(c3cnc(OCCOC(F)(F)F)o3)(C1)C2)[C@H]1C[C@@H](O)c2cc(Cl)ccc2O1` [Compound 414, (2R,4R)-6-chloro-4-hydroxy-N-(3-{2-[2-(trifluoromethoxy)ethoxy]-1,3-oxazol-5-yl}bicyclo[1.1.1]pentan-1-yl)-3,4-dihydro-2H-1-benzopyran-2-carboxamide] cannot be ordered by EC50: less than 10 nM for the first, less than 10 nM for the second.

First: CN(CCOC(F)(F)F)c1cnn(C23CC(NC(=O)[C@H]4C[C@@H](O)c5cc(Cl)ccc5O4)(C2)C3)c1 [Compound 411, (2R,4R)-6-chloro-4-hydroxy-N-[3-(4-{methyl[2-(trifluoromethoxy)ethyl]amino}-1H-pyrazol-1-yl)bicyclo[1.1.1]pentan-1-yl]-3,4-dihydro-2H-1-benzopyran-2-carboxamide]
Second: O=C(NC12CC(n3cc(OCCOC(F)(F)F)cn3)(C1)C2)[C@H]1C[C@@H](O)c2cc(Cl)ccc2O1 [Compound 412, (2R,4R)-6-chloro-4-hydroxy-N-(3-{4-[2-(trifluoromethoxy)ethoxy]-1H-pyrazol-1-yl}bicyclo[1.1.1]pentan-1-yl)-3,4-dihydro-2H-1-benzopyran-2-carboxamide]
The EC50 of the first is higher: 10 to 50 nM for the first, less than 10 nM for the second.

First: O=C(NC12CC(n3cc(OCCOC(F)(F)F)cn3)(C1)C2)[C@H]1C[C@@H](O)c2cc(Cl)c(F)cc2O1 [Compound 413, (2R,4R)-6-chloro-7-fluoro-4-hydroxy-N-(3-{4-[2-(trifluoromethoxy)ethoxy]-1H-pyrazol-1-yl}bicyclo[1.1.1]pentan-1-yl)-3,4-dihydro-2H-1-benzopyran-2-carboxamide]
Second: O=C(NC12CC(n3cc(OCCOC(F)(F)F)cn3)(C1)C2)[C@H]1C[C@@H](O)c2cc(F)ccc2O1 [Compound 418, (2R,4R)-6-fluoro-4-hydroxy-N-(3-{4-[2-(trifluoromethoxy)ethoxy]-1H-pyrazol-1-yl}bicyclo[1.1.1]pentan-1-yl)-3,4-dihydro-2H-1-benzopyran-2-carboxamide]
The EC50 of the first is lower: less than 10 nM for the first, 10 to 50 nM for the second.

`O=C(NC12CC(c3cnc(OCCCOC(F)(F)F)o3)(C1)C2)[C@H]1C[C@@H](O)c2cc(Cl)ccc2O1` [Compound 415, (2R,4R)-6-chloro-4-hydroxy-N-(3-{2-[3-(trifluoromethoxy)propoxy]-1,3-oxazol-5-yl}bicyclo[1.1.1]pentan-1-yl)-3,4-dihydro-2H-1-benzopyran-2-carboxamide] and `O=C(NC12CC(c3cnc(OCCCOC(F)(F)F)o3)(C1)C2)[C@H]1C[C@@H](O)c2cc(Cl)c(F)cc2O1` [Compound 417, (2R,4R)-6-chloro-7-fluoro-4-hydroxy-N-(3-{2-[3-(trifluoromethoxy)propoxy]-1,3-oxazol-5-yl}bicyclo[1.1.1]pentan-1-yl)-3,4-dihydro-2H-1-benzopyran-2-carboxamide] cannot be ordered by EC50: less than 10 nM for the first, less than 10 nM for the second.

`O=C(NC12CC(c3cnc(OCCOC(F)(F)F)o3)(C1)C2)[C@H]1C[C@@H](O)c2cc(Cl)c(F)cc2O1` [Compound 416, (2R,4R)-6-chloro-7-fluoro-4-hydroxy-N-(3-{2-[2-(trifluoromethoxy)ethoxy]-1,3-oxazol-5-yl}bicyclo[1.1.1]pentan-1-yl)-3,4-dihydro-2H-1-benzopyran-2-carboxamide] and `O=C(N[C@H]1CC[C@H](n2cc(OCCOC(F)(F)F)cn2)CC1)[C@H]1C[C@@H](O)c2cc(Cl)c(F)cc2O1` [Compound 419, (2R,4R)-6-chloro-7-fluoro-4-hydroxy-N-[(1r,4R)-4-{4-[2-(trifluoromethoxy)ethoxy]-1H-pyrazol-1-yl}cyclohexyl]-3,4-dihydro-2H-1-benzopyran-2-carboxamide] cannot be ordered by EC50: less than 10 nM for the first, less than 10 nM for the second.

`O=C(N[C@H]1CC[C@H](n2cc(OCCOC(F)(F)F)cn2)CC1)[C@H]1C[C@@H](O)c2cc(Cl)ccc2O1` [Compound 421, (2R,4R)-6-chloro-4-hydroxy-N-[(1r,4R)-4-{4-[2-(trifluoromethoxy)ethoxy]-1H-pyrazol-1-yl}cyclohexyl]-3,4-dihydro-2H-1-benzopyran-2-carboxamide] and `O=C(N[C@H]1CC[C@H](n2cc(OCCCOC(F)(F)F)cn2)CC1)[C@H]1C[C@@H](O)c2cc(Cl)ccc2O1` [Compound 423, (2R,4R)-6-chloro-4-hydroxy-N-[(1r,4R)-4-{4-[3-(trifluoromethoxy)propoxy]-1H-pyrazol-1-yl}cyclohexyl]-3,4-dihydro-2H-1-benzopyran-2-carboxamide] cannot be ordered by EC50: less than 10 nM for the first, less than 10 nM for the second.

In the case of `O=C(N[C@H]1CC[C@H](n2cc(OCCCOC(F)(F)F)cn2)CC1)[C@H]1C[C@@H](O)c2cc(Cl)c(F)cc2O1` [Compound 422, (2R,4R)-6-chloro-7-fluoro-4-hydroxy-N-[(1r,4R)-4-{4-[3-(trifluoromethoxy)propoxy]-1H-pyrazol-1-yl}cyclohexyl]-3,4-dihydro-2H-1-benzopyran-2-carboxamide], the EC50 is reported as less than 10 nM.
